Measurements published in US20200170983A1, “METHODS FOR THE TREATMENT OF BLADDER CANCER” (Cipla Limited, priority 2015, published 2020).
Read-outs that look alike come from different tables or passages of the source.

Columns and labels:
BXF T24 [1] = assay: Combination study, 3D clonogenic assay, 5x5 matrix, Bliss independence; format: cell-based, human; settings: BXF T24, monotherapy controls of the 5x5 combination matrix, read-out: IC50, colony formation, single agent
Description: (§1) The objective of this study was to assess anti-tumor efficacy of adapalene in combination with cisplatin in a 5×5 matrix combination format against various bladder cancer cell lines. Efficacy of the combinations was assessed by measuring anchorage-independent growth and in vitro tumor colony formation using a 3D clonogenic assay in cell lines BXF 1036L, BXF 1218L, and BXF T24.
(§2) The compounds were tested in bladder cell lines, namely BXF 1036L, BXF 1218L, and BXF T24. Cells lines of BXF 1036L and BXF 1218L were established at Oncotest in Freiburg from the corresponding patient-derived xenografts. BXF T24 cells were obtained from American Type Culture Collection (Rockville, Md., USA). Authenticity of cell lines was confirmed at the DSMZ by STR analysis.
(§3) Cell lines were routinely passaged once or twice weekly and maintained in culture for up to 20 passages. Cells were grown at 37° C. in a humidified atmosphere with 5% CO2 in RPMI 1640 medium (25 mM HEPES, with L-glutamine, Biochrom) supplemented with 10% (v/v) fetal calf serum and 0.1 mg/mL gentamicin. The percentage of viable cells was determined in a Neubauer-hemocytometer using trypan blue exclusion.
(§4) The clonogenic assay was carried out in a 96 well plate format using ultra low attachment plates. For each test cells were prepared as described above, and assay plates were prepared as follows: each test well contained a layer of semi-solid medium with tumor cells (50 μl), and a second layer of medium supernatant with or without test compounds (100 μl). The cell layer consisted of 5·10^3 to 7.5·10^3 tumor cells per well, which were seeded in 50 μl/well cell culture medium (IMDM, supplemented with 20% (v/v) fetal calf serum, 0.01% (w/v) gentamicin, and 0.4% (w/v) agar). After 24 h, the soft-agar layer was covered with 90 μl of the same culture medium without agar, and compounds were added after serial dilution in DMSO and transfer in cell culture medium and left on the cells for the duration of the experiment (continuous exposure, 100 μL total drug overlay). Every plate included six untreated control wells and drug-treated groups. Cultures were incubated at 37° C. and 7.5% CO2 in a humidified atmosphere for 8 to 13 days and monitored closely for colony growth using an inverted microscope. Within this period, ex vivo tumor growth led to the formation of colonies with a diameter of >50 μm. At the time of maximum colony formation, counts were performed with an automatic image analysis system (CellInsight NXT, Thermo Scientific). 48 hours prior to evaluation, vital colonies were stained with a sterile aqueous solution of 2-(4-iodophenyl)-3-(4-nitrophenyl)-5-phenyltetrazolium chloride (1 mg/ml, 100 μl/well).

BXF 1036L = assay: as above; format: cell-based, human; settings: monotherapy controls of the 5x5 combination matrix, read-out: IC50, colony formation, single agent
Description: as §1, §2, §3, §4

5637 = assay: In vitro 2D assay (CellTiter-Blue cell viability); format: cell-based, human
From the text: (§5) In the present study the human bladder cancer cell lines BXF 1036, BXF 1218, BXF 1352, 5637 and T24 were used. BXF 1036, BXF 1218 and BXF 1352 were established at Oncotest from the corresponding human patient derived xenograft. T24 was purchased from ATCC (Rockville, Md., USA) and 5637 was from DSMZ (Braunschweig, Germany). Authenticity of cell lines was confirmed at the DSMZ by STR (short tandem repeat) analysis, a PCR based DNA-fingerprinting methodology. Cell lines were routinely passaged once or twice weekly and maintained in culture for up to 20 passages. All cells were grown at 37° C. in a humidified atmosphere with 5% CO2 in RPMI 1640 medium (25 mM HEPES, with L-glutamine, #FG1385, Biochrom, Berlin, Germany) supplemented with 10% (v/v) fetal calf serum (Sigma, Taufkirchen, Germany) and 0.1 mg/mL gentamicin (Life Technologies, Karlsruhe, Germany).
(§6) The CellTiter-Blue® Cell Viability Assay (#G8081, Promega) was used according to manufacturer's instructions. Briefly, cells were harvested from exponential phase cultures, […] on the cell line's growth rate. After a 24 h recovery period to allow the cells to resume exponential growth, test compounds were added. Compounds were applied at 9 concentrations in half-log increments in duplicate and treatment continued for 96 h. After 96 h treatment of cells, 20 μL/well CellTiter-Blue® reagent was added.
(§7) Following an incubation period of up to four hours, fluorescence (FU) was measured by using the Enspire Multimode Plate Reader (excitation λ=531 nm, emission λ=615 nm). For calculations, the mean values of duplicate/sixfold (untreated control) data were used. Sigmoidal concentration-response curves were fitted to the data points (T/C values) obtained for each cell line using 4 parameter non-linear curve fit (Oncotest Warehouse Software).

BXF 1036 [2] = assay: In vitro 2D assay (CellTiter-Blue cell viability); format: cell-based, human; settings: BXF 1036, 96 h treatment
From the text: as §5, §6, §7

BXF 1218 [3] = assay: In vitro 2D assay (CellTiter-Blue cell viability); format: cell-based, human; settings: BXF 1218, 96 h treatment
From the text: as §5, §6, §7

BXF 1352 [4] = assay: In vitro 2D assay (CellTiter-Blue cell viability); format: cell-based, human; settings: BXF 1352, 96 h treatment
From the text: as §5, §6, §7

T24 = assay: In vitro 2D assay (CellTiter-Blue cell viability); format: cell-based, human
From the text: as §5, §6, §7

[5] = system: five selected human bladder cancer cell lines; assay: In vitro 2D assay, mean over the panel; format: cell-based
From the text: as §5, §6, §7

BXF T24 [6] = assay: In vitro 3D clonogenic assay (colony formation in semi-solid medium); format: cell-based, human; settings: for IC50: BXF T24, absolute IC50
Description: (§8) The clonogenic assay was carried out in a 96 well plate format using ultra low attachment plates. For each test, cells were prepared as described above and assay plates were prepared as follows: each test well contained a layer of semi-solid medium with tumor cells (50 μL), and a second layer of medium supernatant with or without test compound (100 μL). The cell layer consisted of 2·103 to 3·103 tumor cells per well, which were seeded in 50 μL/well cell culture medium (IMDM, supplemented with 20% (v/v) fetal calf serum, 0.01% (w/v) gentamicin, and 0.4% (w/v) agar. After 24 hours the test compounds were added after serial dilution in cell culture medium, and left on the cells for the duration of the experiment (continuous exposure, 100 μl drug overlay). Every plate included six untreated control wells and drug-treated groups in duplicate at 9 concentrations. Cultures were incubated at 37° C. and 7.5% CO2 in a humidified atmosphere for 8 to 13 days and monitored closely for colony growth using an inverted microscope. Within this period, ex vivo tumor growth led to the formation of colonies with a diameter of >50 μm. At the time of maximum colony formation, counts were performed with an automatic image analysis system (Bioreader 5000-Wa Biosys GmbH). 48 hours prior to evaluation, vital colonies were stained with a sterile aqueous solution of 2-(4-iodophenyl)-3-(4-nitrophenyl)-5-phenyltetrazolium chloride (1 mg/ml, 100 μl/well).

BXF 1036 [7] = assay: as above; format: cell-based, human; settings: for IC50: BXF 1036, absolute IC50
Description: as §8

BXF 1218 [8] = assay: as above; format: cell-based, human; settings: for IC50: BXF 1218, absolute IC50
Description: as §8

BXF 5637 = assay: as above; format: cell-based, human; settings: BXF 5637, absolute IC50
Description: as §8

BXF 1352 [9] = assay: as above; format: cell-based, human; settings: BXF 1352, absolute IC50
Description: as §8

[10] = system: 5 human tumor cell lines of bladder cancer; assay: In vitro 3D clonogenic assay, mean over the panel; format: cell-based; settings: for IC50: colony formation; for IC50, Geo. Mean: geometric mean of five cell lines
Description: as §8

BXF 1218L = assay: Combination study, 3D clonogenic assay, 5x5 matrix, Bliss independence; format: cell-based, human; settings: monotherapy controls of the 5x5 combination matrix, read-out: IC50, colony formation, single agent
Description: The objective of this study was to assess anti-tumor efficacy of adapalene in combination with cisplatin in a 5×5 matrix combination format against various bladder cancer cell lines. Efficacy of the combinations was assessed by measuring anchorage-independent growth and in vitro tumor colony formation using a 3D clonogenic assay in cell lines BXF […], BXF […], and BXF T24. […] The compounds were tested in bladder cell lines, namely BXF […], BXF […], and BXF T24. Cells lines of BXF […] and BXF […] were established at Oncotest in Freiburg from the corresponding patient-derived xenografts. BXF T24 cells were obtained from American Type Culture Collection (Rockville, Md., USA). Authenticity of cell lines was confirmed at the DSMZ by STR analysis. Cell lines were routinely passaged once or twice weekly and maintained in culture for up to 20 passages. Cells were grown at 37° C. in a humidified atmosphere with 5% CO2 in RPMI 1640 medium (25 mM HEPES, with L-glutamine, Biochrom) supplemented with 10% (v/v) fetal calf serum and 0.1 mg/mL gentamicin. The percentage of viable cells was determined in a Neubauer-hemocytometer using trypan blue exclusion. […] Cultures were incubated at 37° C. and 7.5% CO2 in a humidified atmosphere for 8 to 13 days and monitored closely for colony growth using an inverted microscope. […]

COc1ccc(-c2ccc3cc(C(=O)O)ccc3c2)cc1C12CC3CC(CC(C3)C1)C2 [Adapalene]
IC50 (BXF T24 [1]; Homo sapiens): 3.44 µM
IC50 (BXF 1036L; Homo sapiens): 10.8 µM
IC50 (5637; Homo sapiens, 2D assay, 5637, 96 h treatment): 5.42 µM
IC50 (BXF 1036 [2]; Homo sapiens): 9.91 µM
IC50 (BXF 1218 [3]; Homo sapiens): 6 µM
IC50 (BXF 1352 [4]; Homo sapiens): 14 µM
IC50 (T24; Homo sapiens, T-24, T24, 96 h treatment): 3.33 µM
IC50 ([5]; Homo sapiens, geometric mean of five cell lines, read-out: IC50, Geo. Mean): 6.84 µM
difference between the most sensitive and most resistant cell line ([5]; IC50 of T24 vs BXF 1352): 4 fold
activity relative to mean IC50 (above average = individual IC50 value < 1/2 mean IC50) (BXF T24 [6]; BXF T-24): above average activity
IC50 (BXF T24 [6]; Homo sapiens): ≥ 100 µM
IC50 (BXF 1036 [7]; Homo sapiens): 9.72 µM
activity relative to mean IC50 (above average = individual IC50 value < 1/2 mean IC50) (BXF 1218 [8]; BXF 1218): above average activity
IC50 (BXF 1218 [8]; Homo sapiens): 4.76 µM
IC50 (BXF 5637; Homo sapiens): 9.11 µM
IC50 (BXF 1352 [9]; Homo sapiens): 12.8 µM
IC50 ([10]; Homo sapiens, read-out: mean absolute IC50 value): 14 µM
IC50 ([10]; Homo sapiens, read-out: mean relative IC50 value): 7.37 µM
IC50, Geo. Mean [10]: 14.01 µM

N.N.[Cl][Pt][Cl] [Cisplatin, cisplatin]
IC50 (BXF T24 [1]): 77.4 µM
IC50 (BXF 1036L): 6.09 µM
IC50 (5637; 2D assay, BXF 5637, 96 h treatment): 9.71 µM
IC50 (BXF 1036 [2]): 9.53 µM
IC50 (BXF 1218 [3]): 7.08 µM
IC50 (BXF 1352 [4]): 17.1 µM
IC50 (T24; BXF T24, 96 h treatment): 4.15 µM
IC50 (BXF 1218L): 6.8 µM
IC50 ([5]; all cell lines tested, read-out: geometric mean absolute IC50 value): 8.57 µM
IC50 (BXF T24 [6]): 52 µM
IC50 (BXF 1036 [7]): 3.97 µM
activity relative to mean IC50 (above average = individual IC50 value < 1/2 mean IC50) (BXF 1036 [7]; BXF 1036, based on relative IC50 values): above average activity
IC50 (BXF 1218 [8]): 5.36 µM
IC50 (BXF 5637): 10.1 µM
IC50 (BXF 1352 [9]): 8.65 µM
IC50 ([10]; read-out: mean absolute IC50 value): 9.93 µM
IC50 ([10]; read-out: mean relative IC50 value): 9.71 µM
IC50, Geo. Mean [10]: 9.93 µM
Bottom plateaus of the concentration-effect curves ([10]; responding tumor models): < 10%
